≈ marks a conversion by molar mass, not a printed value. Where “and” joins values, the source holds several entries; their conditions need not be identical. Identical values can stand only once. Like-named read-outs stand apart in the source and are kept apart here.
Key:
[1] = Physical stability on storage of the 6 mg/mL formulation (F11); type: physicochemical; conditions: 80 mg/mL SBE-β-CD, […] v/v ethanol, 3.4% v/v PEG400, 6 mg/mL PF-00835231
Description: To further assess the robustness of formulations prepared in Formulation Example F10, a single formulation was selected to scale-up for use in a stability study.
An additional 20 mL solution of 300 mg/mL SBE-β-CD was similarly prepared.
14.29 mL of the citrate buffer and SBE-β-CD stock solution was then added to two separate 20 mL scintillation vials. […] The drug product solutions were mixed overnight and filtered through a 0.2 um PVDF filter. 0.5 mL aliquots of drug product solutions were then filled into 4 mL vials, stoppered, crimped, and placed in temperature-controlled chambers at −20° C., 4° C., and 25° C.
Furthermore, if the solutions were supersaturated at room temperature, exposure to refrigerated or frozen storage temperatures should induce precipitation and cause a decrease in assay. […] (top), 4° C. (center), and 25° C. (bottom). For each condition, data from two separate samples is plotted and is shown with a linear fit to the data.

HKU1-CoV 3CLpro = HKU1-CoV 3CLpro (Human coronavirus HKU1, UniProt P0C6X2); experiment: FRET protease activity assay; type: biochemical; conditions: Beta-CoV; [E]T 57 ± 1 nM
HKU1-CoV 3CLpro, sequence (P0C6X2 3335-3637): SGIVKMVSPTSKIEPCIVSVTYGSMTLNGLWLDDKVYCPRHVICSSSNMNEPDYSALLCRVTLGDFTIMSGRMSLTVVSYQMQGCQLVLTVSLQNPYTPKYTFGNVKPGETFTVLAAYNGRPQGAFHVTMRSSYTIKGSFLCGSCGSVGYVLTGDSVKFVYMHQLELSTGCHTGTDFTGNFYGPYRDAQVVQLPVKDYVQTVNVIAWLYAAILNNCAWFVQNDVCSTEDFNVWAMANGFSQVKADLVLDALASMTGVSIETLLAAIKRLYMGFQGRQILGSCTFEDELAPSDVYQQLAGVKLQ

OC43-CoV 3CLpro = OC43-CoV 3CLpro (Human coronavirus OC43, UniProt P0C6X6); experiment: FRET protease activity assay; type: biochemical; conditions: Beta-CoV; [E]T 52 ± 1 nM
OC43-CoV 3CLpro, sequence (P0C6X6 3247-3549): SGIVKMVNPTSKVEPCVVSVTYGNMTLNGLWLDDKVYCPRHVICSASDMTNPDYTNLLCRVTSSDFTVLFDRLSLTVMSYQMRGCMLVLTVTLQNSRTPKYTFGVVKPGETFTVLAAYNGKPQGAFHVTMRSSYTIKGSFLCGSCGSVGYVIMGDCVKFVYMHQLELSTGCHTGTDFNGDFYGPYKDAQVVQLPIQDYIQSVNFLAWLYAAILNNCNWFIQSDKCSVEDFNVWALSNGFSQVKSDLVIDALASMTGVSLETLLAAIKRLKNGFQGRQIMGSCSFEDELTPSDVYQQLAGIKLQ

[2] = tested on: BetaCov GHB-03021/2020 strain; experiment: microbe, parasite or virus in culture; type: cell-based, SARS-CoV-2; conditions: Severe acute respiratory syndrome coronavirus 2
SARS-CoV-2 [3] = experiment: Antiviral activity in HeLa-ACE2 cells (viral protein detection); type: cell-based; conditions: Severe acute respiratory syndrome coronavirus 2, compound alone
[4] = tested on: SARS-CoV-2 USA-NYU-VC-003/2020; experiment: In vitro drug efficacy in A549+ACE2 cells; type: cell-based; conditions: Severe acute respiratory syndrome coronavirus 2, 24 hours post infection
[5] = 48 h
[6] = Ethanol […] v/v, 2 mg/mL at preparation
[7] = ~1 mg/mL, 5% v/v co-solvent, pH 4 or 5, with or without 15 mg/mL SBE-β-CD, up to 7 days, all samples
VeroE6-enACE2 cells = conditions: African green monkey
[8] = tested on: SARS-CoV-2 (USA_WA1/2020); conditions: for synergy score: isobologram level 0.9
SARS-CoV-2 [9] = conditions: for Bliss Synergy Score / HSA Synergy Score / Loewe Synergy Score: with Remdesivir; for classification of the combination effect: with remdesivir
[10] = tested on: CYP1A2, 2B6, 2C8, 2C9, 2C19, 2D6, and 3A; conditions: read-out: IC50, reversible inhibition of CYP enzymes; probe substrates in pooled HLM
CYP3A4/5 = conditions: microsomes
[11] = pH 7.4
physchem [12] = conditions: 4 °C, thermodynamic from solid
physchem [13] = conditions: 25 °C, pH 5, aqueous buffer, thermodynamic from solid, Saturated solubility for PF-00835231 at 25° C.
physchem [14] = conditions: 25 °C, organic solvent or mixture, thermodynamic from solid
physchem [15] = conditions: 25 °C, aqueous with cosolvent or surfactant or cyclodextrin, thermodynamic from solid
in vitro = conditions: human
Freeze-thaw experiment = conditions: solutions of the order-of-addition experiment, −20° C. freezer ~24 hours, thawed at room temperature
[16] = Cytotoxicity in MRC-5 cells; conditions: human
MRC-5 cells = experiment: Cytotoxicity in MRC-5 cells; conditions: read-out: CC50 μM GeoMean; MRC-5, Efflux Inhibitor 0.5 μM
[17] = Assay over 7 days, 80 mg/mL SBE-β-CD with PEG400/ethanol (F10); conditions: ~3:1 PEG400:ethanol (1.5-6.0% v/v), 2, 4, 6 and 8 mg/mL PF-00835231, ambient
[18] = Saturated solubility in CD/water mixtures with polymeric excipients (F6); conditions: 25° C., pH 5, HP-β-CD 15 mg/mL
[19] = Assay of CD/co-solvent/water formulations of different compositions over 5 days (F8); conditions: all formulations of Formulation Table F11
[20] = Patient Sera 2, individual value, n 1

Compound: COc1cccc2[nH]c(C(=O)N[C@@H](CC(C)C)C(=O)N[C@@H](C[C@@H]3CCNC3=O)C(=O)CO)cc12 [PF-00835231]
- assay values on storage at 4° C. and 25° C. (FIG. 13) [1]: consistent over the 30 day period tested
- assay values on storage at −20° C. (FIG. 13) [1]: consistent over the 7 day period tested
- Ki (HKU1-CoV 3CLpro): 0.9 ± 0.2 nM
- Ki (OC43-CoV 3CLpro): 0.5 ± 0.1 nM
- EC90 [2]: 1600 nM
- EC50 (SARS-CoV-2 [3]): 140 nM and 144 nM
- EC90 (SARS-CoV-2 [3]): 400 nM and 398 nM
- EC50 [4]: 184 nM
- EC90 [4]: 591 nM
- PF-00835321 Solubility [5]: >45000 µg/mL
- PF-00835231 Assay ([6]; HP-β-CD 0 mg/mL, order: PF-00835231, Ethanol, Buffer): 0.4 mg/mL
- PF-00835231 Assay ([6]; HP-β-CD 15 mg/mL, order: PF-00835231, Ethanol, HP-β-CD with buffer): 1.9 mg/mL
- PF-00835231 Assay ([6]; HP-β-CD 15 mg/mL, order: PF-00835231, HP-β-CD with buffer, Ethanol): 0.4 mg/mL
- decrease in chromatographic purity at 22° C. [7]: less than 0.5%
- CC50 (VeroE6-enACE2 cells): > 100000 nM
- cytotoxicity of the combinations [8]: no significant cytotoxicity
- synergy score ([8]; combination with azithromycin): 3.76
- synergy score ([8]; combination with remdesivir): 5.1
- cytotoxicity in virus infected host cells (SARS-CoV-2 [9]; all the combinations with remdesivir tested): no noticeable cytotoxicity
- Bliss Synergy Score (SARS-CoV-2 [9]; Patient Sera 1, average, n 2): 1.60
- HSA Synergy Score (SARS-CoV-2 [9]; Patient Sera 1, average, n 2): 2.51
- Loewe Synergy Score (SARS-CoV-2 [9]; Patient Sera 1, average, n 2): 1.60
- Bliss Synergy Score (SARS-CoV-2 [9]; [20]): (0.366)
- HSA Synergy Score (SARS-CoV-2 [9]; [20]): (0.830)
- Loewe Synergy Score (SARS-CoV-2 [9]; [20]): (−0.0776)
- classification of the combination effect (SARS-CoV-2 [9]; patient #1 sera, 2 independent experiments): synergy
- classification of the combination effect (SARS-CoV-2 [9]; sera from patient #2, single experiment): additivity
- IC50 [10]: > 200000 nM
- time dependent inhibition of CYP3A4/5 (CYP3A4/5): weak signal
- SFLogD7.4 [11]: 1.7
- solubility at 48 h (physchem [12]; pH 3, aqueous buffer): 100 µg/mL (≈ 212 µM)
- solubility at 48 h (physchem [12]; pH 5, aqueous buffer): 100 µg/mL (≈ 212 µM)
- solubility at 48 h (physchem [12]; pH 7, aqueous buffer): 100 µg/mL (≈ 212 µM)
- solubility at 25 h (physchem [13]): 200 µg/mL (≈ 423 µM)
- solubility at 48 h (physchem [14]): > 45000 µg/mL
- solubility (physchem [15]): 1700 µg/mL (≈ 3600 µM)
- solubility at 48 h (physchem [15]): 1900 µg/mL (≈ 4020 µM)
- solubility at 72 h (physchem [15]): 2000 µg/mL (≈ 4230 µM)
- CC50 (in vitro): > 10000 nM
- visual inspection after freezing and thawing (Freeze-thaw experiment): No particulates were observed in any sample
- CC50 [16]: > 100000 nM
- CC50 (MRC-5 cells): > 100 µM
- assay values of filtered formulations over 7 days (FIG. 12) [17]: do not change over 7 days
- PF-00835231 Assay ([18]; HPMC 1 mg/mL): 0.4 mg/mL
- PF-00835231 Assay ([18]; PEG400 […]): 0.4 mg/mL
- PF-00835231 Assay ([18]; PEG3350 […]): 0.4 mg/mL
- PF-00835231 Assay ([18]; PVP […]): 0.4 mg/mL
- PF-00835231 Assay ([18]; no polymeric excipient): 0.4 mg/mL
- appearance of solutions after 5 days mixing at 25° C. [19]: remained clear
